Source: US10738028B2, “Spiro three-membered ring, spiro five-membered ring peptide deformylase inhibitor and use thereof in antibacteria and anti-tumor” (priority 2016, dated 2020)
Values after ≈ are worked out from the molar mass of the structure shown. Like-named read-outs stand apart in the source and are kept apart here.

How the values were obtained:
Assay type in all cases: cell-based
[1] = system: Enterococcus faecalis (EFA); experiment: MIC, two-fold agar dilution (CLSI), clinical isolates
Procedure, shortened: (§1)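 Test samples were assayed by the CLSI-recommended two-fold agar dilution method, and the minimum inhibitory concentration against each tested strain was determined.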

[2] = system: Enterococcus faecium (EFM); experiment: as above
Procedure, shortened: as §1

[3] = system: Escherichia coli (including ESBLs, non-ESBLs); experiment: as above
Procedure, shortened: as §1

[4] = system: Moraxella catarrhalis (BCA); experiment: as above
Procedure, shortened: as §1

[5] = system: Streptococcus pneoumoniae (SPN); experiment: as above
Procedure, shortened: as §1

[6] = system: methicillin-resistant Staphylococcus aureus (MRSA); experiment: as above
Procedure, shortened: as §1

[7] = system: methicillin-resistant Staphylococcus epidermidis (MRSE); experiment: as above
Procedure, shortened: as §1

[8] = system: methicillin-sensitive Staphylococcus aureus (MSSA); experiment: as above
Procedure, shortened: as §1

[9] = system: methicillin-sensitive Staphylococcus epidermidis (MSSE); experiment: as above
Procedure, shortened: as §1

[10] = system: HCT-116 colorectal cancer cell line; experiment: CCK-8 proliferation inhibition; settings: Homo sapiens, HCT-116, 72 h, concentration of 30 μM, 72 hours, CCK-8
Procedure, shortened: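 Viability read-out: 1:10 diluted CCK-8 after 72 h compound exposure at 37 °C, 5% CO2. Cells (2000/well, McCoy's 5A plus 10% newborn bovine serum) pre-cultured overnight; vehicle control 1‰ DMSO.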

[11] = system: A549 lung cancer cell line; experiment: CCK-8 proliferation inhibition; settings: Homo sapiens, A549, 72 h, concentration of 30 μM
Procedure, shortened: (§2)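 Plating at 2000 cells/well, then incubation overnight at 37° C. Next, a range of compound concentrations for 72 hours (control 1‰ DMSO). Finally, medium decanted and CCK-8 diluted 1:10 added.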

[12] = system: BEL-7402 liver cancer cell line; experiment: CCK-8 proliferation inhibition; settings: Homo sapiens, Bel-7402, 72 h, concentration of 30 μM
Procedure, shortened: as §2

[13] = system: MGC-803 gastric cancer cell line; experiment: CCK-8 proliferation inhibition; settings: Homo sapiens, MGC-803, 72 h, concentration of 30 μM
Procedure, shortened: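 Growth inhibition measured by CCK-8 read-out after 72 h continuous compound treatment, 1‰ DMSO vehicle as control. Cells plated 2000/well the night before at 37 °C, 5% CO2; medium was 1640 for Jurkat and MGC-803, F12 for PC3, DMEM high glucose for MCF-7, each with 10% newborn bovine serum.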

**Q.** For `O=CN(O)C[C@@H](CC1CCCC1)C(=O)N1CC2(CC2)C[C@H]1C(=O)NC1CC1` [Example 32, (S)-5-((R)-3-cyclopentyl-2-((N-hydroxyformamido)methyl)propionyl)-N-cyclopropyl-5-azaspiro[2.4]heptane-6-carboxamide], which MIC (anti-bacterial activity) ([1]; strain EFA 15-1) is on record?
**A.** The MIC (anti-bacterial activity) was 8 µg/mL (≈ 21.2 µM).

**Q.** And the MIC (anti-bacterial activity) ([1]; strain EFA 15-2)?
**A.** Its MIC (anti-bacterial activity) is 8 µg/mL (≈ 21.2 µM).

**Q.** And the MIC (anti-bacterial activity) ([1]; strain EFA 15-3)?
**A.** Its MIC (anti-bacterial activity) is 8 µg/mL (≈ 21.2 µM).

**Q.** What about the MIC (anti-bacterial activity) ([1]; strain EFA 15-4) of the same compound?
**A.** The MIC (anti-bacterial activity) was 8 µg/mL (≈ 21.2 µM).

**Q.** What about the MIC (anti-bacterial activity) ([1]; strain EFA 15-5) of the same compound?
**A.** Its MIC (anti-bacterial activity) is 8 µg/mL (≈ 21.2 µM).

**Q.** And the MIC (anti-bacterial activity) ([1]; strain EFA 15-6)?
**A.** Its MIC (anti-bacterial activity) is 8 µg/mL (≈ 21.2 µM).

**Q.** And the MIC (anti-bacterial activity) ([1]; strain EFA 15-9)?
**A.** Its MIC (anti-bacterial activity) is 8 µg/mL (≈ 21.2 µM).

**Q.** What about the MIC (anti-bacterial activity) ([2]; strain EFM 15-1) of the same compound?
**A.** Its MIC (anti-bacterial activity) is 4 µg/mL (≈ 10.6 µM).

**Q.** And the MIC (anti-bacterial activity) ([2]; strain EFM 15-2)?
**A.** Its MIC (anti-bacterial activity) is 4 µg/mL (≈ 10.6 µM).

**Q.** What about the MIC (anti-bacterial activity) ([2]; strain EFM 15-3) of the same compound?
**A.** The MIC (anti-bacterial activity) was 1 µg/mL (≈ 2.65 µM).

**Q.** What about the MIC (anti-bacterial activity) ([2]; strain EFM 15-4) of the same compound?
**A.** The MIC (anti-bacterial activity) was 4 µg/mL (≈ 10.6 µM).

**Q.** And the MIC (anti-bacterial activity) ([2]; strain EFM 15-5)?
**A.** Its MIC (anti-bacterial activity) is 4 µg/mL (≈ 10.6 µM).

**Q.** What about the MIC (anti-bacterial activity) ([2]; strain EFM 15-6) of the same compound?
**A.** The MIC (anti-bacterial activity) was 4 µg/mL (≈ 10.6 µM).

**Q.** What about the MIC (anti-bacterial activity) ([3]; strain ECO+ 15-1) of the same compound?
**A.** Its MIC (anti-bacterial activity) is 32 µg/mL (≈ 84.8 µM).

**Q.** And the MIC (anti-bacterial activity) ([3]; strain ECO+ 15-2)?
**A.** Its MIC (anti-bacterial activity) is greater than 32 µg/mL.

**Q.** And the MIC (anti-bacterial activity) ([3]; strain ECO+ 15-3)?
**A.** The MIC (anti-bacterial activity) was greater than 32 µg/mL.

**Q.** And the MIC (anti-bacterial activity) ([3]; strain ECO+ 15-4)?
**A.** The MIC (anti-bacterial activity) was 32 µg/mL (≈ 84.8 µM).

**Q.** And the MIC (anti-bacterial activity) ([3]; strain ECO− 15-1)?
**A.** Its MIC (anti-bacterial activity) is 32 µg/mL (≈ 84.8 µM).

**Q.** And the MIC (anti-bacterial activity) ([3]; strain ECO− 15-2)?
**A.** Its MIC (anti-bacterial activity) is greater than 32 µg/mL.

**Q.** What about the MIC (anti-bacterial activity) ([3]; strain ECO− 15-3) of the same compound?
**A.** Its MIC (anti-bacterial activity) is greater than 32 µg/mL.

**Q.** What about the MIC (anti-bacterial activity) ([3]; strain ECO− 15-4) of the same compound?
**A.** The MIC (anti-bacterial activity) was greater than 32 µg/mL.

**Q.** What about the Anti-bacterial activity (MIC), strain BCA 14-10 ([4]; clinical isolate BCA 14-10) of the same compound?
**A.** Its Anti-bacterial activity (MIC), strain BCA 14-10 is 1 µg/mL.

**Q.** What about the MIC (anti-bacterial activity) ([4]; strain BCA 14-1) of the same compound?
**A.** Its MIC (anti-bacterial activity) is 4 µg/mL (≈ 10.6 µM).

**Q.** What about the MIC (anti-bacterial activity) ([4]; strain BCA 14-4) of the same compound?
**A.** The MIC (anti-bacterial activity) was 4 µg/mL (≈ 10.6 µM).

**Q.** What about the MIC (anti-bacterial activity) ([4]; strain BCA 14-5) of the same compound?
**A.** The MIC (anti-bacterial activity) was 2 µg/mL (≈ 5.3 µM).

**Q.** What about the MIC (anti-bacterial activity) ([4]; strain BCA 14-6) of the same compound?
**A.** The MIC (anti-bacterial activity) was 8 µg/mL (≈ 21.2 µM).

**Q.** And the MIC (anti-bacterial activity) ([4]; strain BCA 14-7)?
**A.** The MIC (anti-bacterial activity) was 1 µg/mL (≈ 2.65 µM).

**Q.** What about the MIC (anti-bacterial activity) ([4]; strain BCA 14-8) of the same compound?
**A.** Its MIC (anti-bacterial activity) is 8 µg/mL (≈ 21.2 µM).

**Q.** And the MIC (anti-bacterial activity) ([5]; strain SPN 16-2)?
**A.** The MIC (anti-bacterial activity) was 1 µg/mL (≈ 2.65 µM).

**Q.** What about the MIC (anti-bacterial activity) ([5]; strain SPN 16-4) of the same compound?
**A.** Its MIC (anti-bacterial activity) is 8 µg/mL (≈ 21.2 µM).

**Q.** What about the MIC (anti-bacterial activity) ([6]; strain MRSA 15-1) of the same compound?
**A.** The MIC (anti-bacterial activity) was 1 µg/mL (≈ 2.65 µM).

**Q.** What about the MIC (anti-bacterial activity) ([6]; strain MRSA 15-2) of the same compound?
**A.** Its MIC (anti-bacterial activity) is 1 µg/mL (≈ 2.65 µM).

**Q.** And the MIC (anti-bacterial activity) ([6]; strain MRSA 15-3)?
**A.** The MIC (anti-bacterial activity) was 1 µg/mL (≈ 2.65 µM).

**Q.** And the MIC (anti-bacterial activity) ([6]; strain MRSA 15-4)?
**A.** Its MIC (anti-bacterial activity) is 1 µg/mL (≈ 2.65 µM).

**Q.** What about the MIC (anti-bacterial activity) ([7]; strain MRSE 15-1) of the same compound?
**A.** The MIC (anti-bacterial activity) was 1 µg/mL (≈ 2.65 µM).

**Q.** And the MIC (anti-bacterial activity) ([7]; strain MRSE 15-2)?
**A.** The MIC (anti-bacterial activity) was 2 µg/mL (≈ 5.3 µM).

**Q.** What about the MIC (anti-bacterial activity) ([7]; strain MRSE 15-3) of the same compound?
**A.** The MIC (anti-bacterial activity) was 8 µg/mL (≈ 21.2 µM).

**Q.** What about the MIC (anti-bacterial activity) ([7]; strain MRSE 15-7) of the same compound?
**A.** Its MIC (anti-bacterial activity) is 8 µg/mL (≈ 21.2 µM).

**Q.** What about the MIC (anti-bacterial activity) ([8]; strain MSSA 15-3) of the same compound?
**A.** The MIC (anti-bacterial activity) was 2 µg/mL (≈ 5.3 µM).

**Q.** What about the MIC (anti-bacterial activity) ([8]; strain MSSA 15-4) of the same compound?
**A.** The MIC (anti-bacterial activity) was 1 µg/mL (≈ 2.65 µM).

**Q.** And the MIC (anti-bacterial activity) ([8]; strain MSSA 15-5)?
**A.** Its MIC (anti-bacterial activity) is 1 µg/mL (≈ 2.65 µM).

**Q.** What about the MIC (anti-bacterial activity) ([8]; strain MSSA 15-6) of the same compound?
**A.** The MIC (anti-bacterial activity) was 2 µg/mL (≈ 5.3 µM).

**Q.** And the MIC (anti-bacterial activity) ([9]; strain MSSE 15-3)?
**A.** The MIC (anti-bacterial activity) was 2 µg/mL (≈ 5.3 µM).

**Q.** What about the MIC (anti-bacterial activity) ([9]; strain MSSE 15-4) of the same compound?
**A.** Its MIC (anti-bacterial activity) is 2 µg/mL (≈ 5.3 µM).

**Q.** What about the MIC (anti-bacterial activity) ([9]; strain MSSE 15-5) of the same compound?
**A.** Its MIC (anti-bacterial activity) is 2 µg/mL (≈ 5.3 µM).

**Q.** What about the MIC (anti-bacterial activity) ([9]; strain MSSE 15-6) of the same compound?
**A.** The MIC (anti-bacterial activity) was 2 µg/mL (≈ 5.3 µM).

**Q.** What about the inhibition at 30 µM ([10]; Table 5, read-out: Inhibition of proliferation, Colorectal cancer HCT116) of the same compound?
**A.** Its inhibition at 30 µM is no less than 30%.

**Q.** What about the inhibition at 30 µM ([10]; read-out: HCT116 inhibition rate/%) of the same compound?
**A.** Its inhibition at 30 µM is 30%.

**Q.** And the inhibition at 30 µM [11]?
**A.** Its inhibition at 30 µM is 14%.

**Q.** And the inhibition at 30 µM [12]?
**A.** Its inhibition at 30 µM is 46%.

**Q.** What about the inhibition at 30 µM [13] of the same compound?
**A.** Its inhibition at 30 µM is 14%.
